Results as given in patent US20140377219A1, “HIV INHIBITORS” (New york Blood Center, Inc., priority 2011, published 2014).
Read-outs that look alike come from different tables or passages of the source.

How the values were obtained:
[1] = tested on: Panel B env pCAAN5342 clone A2 (SVPB19); format: cell-based; conditions: TZM-bl, read-out: IC50 (μM) ± S.D., antiviral activity against HIV-1 envelope pseudoviruses
[2] = tested on: HIV-1 SF162; test: Neutralization assay in PBMC (p24 ELISA); conditions: read-out: IC50 (μM) ± S.D., inhibitory activity on infection; SF162, subtype B, PBMC, R5, laboratory strain
Method: (§1) PBMCs were isolated from the blood of healthy donors at the New York Blood Center by standard density-gradient centrifugation using Histopaque-1077 (Sigma-Aldrich). The cells were cultured at 37° C. for 2 h. Non-adherent cells were collected and resuspended at 5×10^6 cells/ml in RPMI-1640 medium containing 10% (v/v) fetal bovine serum, 5 μg/ml of phytohemagglutinin, and 100 U/ml of IL-2 (Sigma-Aldrich), followed by incubation at 37° C. for three days.

[3] = tested on: primary HIV-1 isolate 93TH060 (subtype E, R5); test: Neutralization assay in PBMC (p24 ELISA); conditions: read-out: IC50 (μM) ± S.D., inhibitory activity on infection; 93TH060, subtype E, PBMC, R5, primary isolate
Method: (§2) The inhibitory activity of small molecules on infection by primary HIV-1 isolates was determined. PBMCs were isolated from the blood of healthy donors at the New York Blood Center by standard density-gradient centrifugation using Histopaque-1077 (Sigma-Aldrich). The cells were cultured at 37° C. for 2 h. Non-adherent cells were collected and resuspended at 5×10^6 cells/ml in RPMI-1640 medium containing 10% (v/v) fetal bovine serum, 5 μg/ml of phytohemagglutinin, and 100 U/ml of IL-2 (Sigma-Aldrich), followed by incubation at 37° C. for three days.

[4] = tested on: primary HIV-1 isolate 92UG031 (subtype A, R5); test: Neutralization assay in PBMC (p24 ELISA); conditions: read-out: IC50 (μM) ± S.D., inhibitory activity on infection; 92UG031, subtype A, PBMC, R5, primary isolate
Method: as §2

[5] = tested on: HIV-1 RF; test: Multi-cycle neutralization assay in MT-2 cells; conditions: read-out: IC50 (μM) ± S.D., inhibitory activity on infection; RF, subtype B, MT-2, R5X4, laboratory strain
[6] = tested on: HIV-1 SF2; test: Multi-cycle neutralization assay in MT-2 cells; conditions: read-out: IC50 (μM) ± S.D., inhibitory activity on infection; SF2, subtype B, MT-2, R5X4, laboratory strain
[7] = tested on: primary HIV-1 isolate 93BR029 (clade F, R5); test: Neutralization assay in PBMC (p24 ELISA); conditions: read-out: IC50 (μM) ± S.D., inhibitory activity on infection; 93BR029, subtype F, PBMC, R5, primary isolate
Method: as §1

[8] = tested on: HIV-1 MN; test: Multi-cycle neutralization assay in MT-2 cells; conditions: read-out: IC50 (μM) ± S.D., inhibitory activity on infection; MN, subtype B, MT-2, X4, laboratory strain
Method: (§3) In brief, 1×10^4 MT-2 cells were infected with HIV-1 at 100 TCID50 (50% tissue culture infective dose) (0.01MOI) in 200 μl medium in the presence or absence of small molecules at graded concentrations and incubated overnight. The culture supernatants were then removed and replaced with fresh media. On the fourth day post-infection, 100 μl of culture supernatants were collected from each well, mixed with equal volume of 5% Triton X-100 and tested for p24 antigen by sandwich-ELISA. The percent inhibition of p24 production and IC50 values were calculated by the GraphPad Prism software (GraphPad Software Inc.).

[9] = tested on: HIV-1 RF/L-323-12-3 (protease resistant isolate); test: Multi-cycle neutralization assay in MT-2 cells; conditions: read-out: IC50 (μM) ± S.D., inhibitory activity on infection; HIV-1 RF/L-323-12-3, subtype B, MT-2, X4, protease resistant isolate
[10] = tested on: PBMC; test: Cytotoxicity in PBMC (XTT); format: cell-based
Method: Cytotoxicity of small molecules in MT-2 cells and PBMC was measured by the XTT ((sodium 3′-(1-(phenylamino)-carbonyl)-3,4-tetrazolium-bis(4-methoxy-6-nitro)benzene-sulfonic acid hydrate)) method. Briefly, for MT-2 cells, 100 μl of a small molecule at graded concentrations was added to an equal volume of cells (10^5 cells/ml) in 96-well plates followed by incubation at 37° C. for four days, which ran parallel with the neutralization assay in MT-2 (except medium was added instead of virus). In the case of PBMC, 5×10^5 cells/ml was used and the cytotoxicity was measured after seven days. […] The percentage cytotoxicity and the CC50 values were calculated as described above.

[11] = tested on: HIV-1 89.6; test: Neutralization assay in PBMC (p24 ELISA); conditions: read-out: IC50 (μM) ± S.D., inhibitory activity on infection; 89.6, subtype B, PBMC, R5X4, laboratory strain
Method: as §2

[12] = tested on: Panel C env ZM-109F.PB4, SVPC13; format: cell-based; conditions: TZM-bl, read-out: IC50 (μM) ± S.D., antiviral activity against HIV-1 envelope pseudoviruses
[13] = tested on: Panel C env Du422, clone 1 (SVPC5); format: cell-based; conditions: TZM-bl, read-out: IC50 (μM) ± S.D., antiviral activity against HIV-1 envelope pseudoviruses
[14] = tested on: Panel C env ZM-53M.PB12, SVPC11; format: cell-based; conditions: TZM-bl, read-out: IC50 (μM) ± S.D., antiviral activity against HIV-1 envelope pseudoviruses
[15] = tested on: HIV-1 BaL; test: Neutralization assay in PBMC (p24 ELISA); conditions: read-out: IC50 (μM) ± S.D., inhibitory activity on infection, BaL, subtype B, R5, laboratory strain
Method: as §1

[16] = tested on: laboratory-adapted HIV-1 IIIB strain
Method: as §3

[17] = tested on: AZT-resistant (AZT-R) HIV-1 strain; test: Multi-cycle neutralization assay in MT-2 cells; conditions: read-out: IC50 (μM) ± S.D., inhibitory activity on infection; AZT-R, subtype B, MT-2, X4, RT-resistant isolate
[18] = tested on: Panel C env ZM-197M.PB7, SVPC6; format: cell-based; conditions: TZM-bl, read-out: IC50 (μM) ± S.D., antiviral activity against HIV-1 envelope pseudoviruses
[19] = tested on: primary HIV-1 isolate RU570 (clade G, R5); test: Neutralization assay in PBMC (p24 ELISA); conditions: read-out: IC50 (μM) ± S.D., inhibitory activity on infection; RU570, subtype G, PBMC, R5, primary isolate
Method: as §1

[20] = tested on: Panel C env CAP-210.2.00.E8, SVPC17; format: cell-based; conditions: TZM-bl, read-out: IC50 (μM) ± S.D., antiviral activity against HIV-1 envelope pseudoviruses
[21] = tested on: Panel C env ZM-214M.PL15, SVPC7; format: cell-based; conditions: TZM-bl, read-out: IC50 (μM) ± S.D., antiviral activity against HIV-1 envelope pseudoviruses
[22] = tested on: primary HIV-1 isolate BCF02 (Group 0, R5); test: Neutralization assay in PBMC (p24 ELISA); conditions: read-out: IC50 (μM) ± S.D., inhibitory activity on infection; BCF02, Group 0, PBMC, R5, primary isolate
Method: as §2

[23] = tested on: Panel C env ZM-135M.PL10a, SVPC15; format: cell-based; conditions: TZM-bl, read-out: IC50 (μM) ± S.D., antiviral activity against HIV-1 envelope pseudoviruses
[24] = tested on: Panel C env CAP-45.2.00.G3, SVPC16; format: cell-based; conditions: TZM-bl, read-out: IC50 (μM) ± S.D., antiviral activity against HIV-1 envelope pseudoviruses
[25] = PBMC, XTT, seven days, read-out: PBMC CC50
[26] = read-out: IC50 (μM) ± S.D., inhibitory activity on infection, IIIB, subtype B, MT-2, X4, laboratory strain
[27] = read-out: MT-2 Cells IC50 (μM ± SD), multi-cycle assay, MT-2 cells, HIV-1 IIIB

SMILES | IC50 [1] | IC50 [2] | IC50 [3] | IC50 [4] | IC50 [5] | IC50 [6] | IC50 [7] | IC50 [8] | IC50 [9] | IC50 [11] | IC50 [12] | IC50 [13] | IC50 [15] | IC50 [16, 26] | IC50 [16, 27] | IC50 [17] | IC50 [18] | IC50 [19] | IC50 [20] | IC50 [21] | further results
Cc1ccc(NC(=O)C(=O)NC(c2nc(C)c(CO)s2)C2CCCCN2)cc1F.Cl (centres unmarked) [Compound 28, N^1-(3-fluoro-4-methylphenyl)-N^2-((5-(hydroxymethyl)-4-methylthiazol-2-yl)(piperidin-2-yl)methyl)oxalamide.HCl] | 1.5 ± 0.1 µM | 8.1 ± 1.2 µM | 9.9 ± 1.8 µM | 13.4 ± 1.2 µM | 11 ± 0.6 µM | 38.7 ± 4.5 µM | 5.2 ± 1.1 µM | 24.6 ± 4.6 µM | 4.8 ± 0.9 µM | 3.9 ± 0.5 µM | > 42 µM | > 42 µM | 23.7 ± 0.3 µM | 3.7 ± 0.7 µM | 5.3 ± 0.5 µM | 5.5 ± 0.7 µM | > 42 µM | 15.7 ± 0.2 µM | > 42 µM | > 42 µM | CC50 [10, 25]: ~106 µM; IC50 [14]: > 42 µM; IC50 [22]: > 85 µM
Cc1nc(C(NC(=O)C(=O)Nc2ccc(Cl)cc2)C2CCCCN2)sc1CO.Cl (centres unmarked) [Compound 6, N^1-(4-chlorophenyl)-N^2-((5-(hydroxymethyl)-4-methylthiazol-2-yl)(piperidin-2-yl)methyl)oxalamide.HCl] | 2.3 ± 0.3 µM | 12.7 ± 0.7 µM | 7.2 ± 0.6 µM | 9.3 ± 0.7 µM | 9.6 ± 0.8 µM | 5.7 ± 0.9 µM | 8 ± 1.3 µM | 4 ± 0.9 µM | 14.7 ± 2.3 µM | – | 1.2 ± 0.2 µM | 15.9 ± 0.4 µM | 35.8 ± 1.2 µM | 4.7 ± 0.6 µM | 4.7 ± 0.6 µM | 4.4 ± 1.1 µM | > 21 µM | 8.5 ± 0.8 µM | 15.1 ± 1.5 µM | > 21 µM | IC50 [23]: 0.73 ± 0.13 µM; IC50 [24]: 4.7 ± 0.95 µM; CC50 [10]: > 160 µM; IC50 [14]: 2.4 ± 0.2 µM; IC50 [22]: ~87 µM
CC1(C)CC(NC(=O)C(=O)Nc2ccc(Cl)cc2)CC(C)(C)N1 [NBD-556, reference compound] | 2.4 ± 0.3 µM | 48.9 ± 7.3 µM | > 45 µM | – | 18.7 ± 1.3 µM | ≥ 118 µM | 40 ± 10.6 µM | 15.9 ± 1.6 µM | > 59 µM | 4.8 ± 1 µM | 10.4 ± 3.5 µM | 11.8 ± 2.9 µM | ≥ 118 µM | 6.5 ± 0.1 µM | 8 ± 0.2 µM | 58 ± 14.3 µM | 7.9 ± 0.9 µM | 19.5 ± 2.3 µM | 13.3 ± 1.3 µM | 6.5 ± 1.3 µM | IC50 [23]: 1.5 ± 0.01 µM; IC50 [24]: 7.9 ± 0.87 µM; CC50 [10, 25]: 961 µM; IC50 [14]: 13.4 ± 0.06 µM
Cc1nc(C(NC(=O)C(=O)Nc2ccc(Cl)c(F)c2)C2CCCCN2)sc1CCO.Cl (centres unmarked) [Compound 39, N^1-(4-chloro-3-fluorophenyl)-N^2-((5-(2-hydroxyethyl)-4-methylthiazol-2-yl)(piperidin-2-yl)methyl)oxalamide.HCl] | 0.8 ± 0.3 µM | 11.9 ± 1 µM | 13.7 ± 0.9 µM | 12.9 ± 1.5 µM | 11.8 ± 1.2 µM | 15.8 ± 1.7 µM | 8.3 ± 0.7 µM | 16.7 ± 1.5 µM | 6.9 ± 1 µM | 6.2 ± 0.3 µM | 3 ± 0.1 µM | 2.5 ± 0.1 µM | 24.9 ± 4.5 µM | 3.5 ± 0.9 µM | 3.5 ± 0.9 µM | 6.8 ± 0.6 µM | 2.3 ± 0.2 µM | 10.7 ± 0.5 µM | 3.2 ± 0.6 µM | 2.9 ± 0.4 µM | IC50 [23]: 0.61 ± 0.1 µM; IC50 [24]: 3.4 ± 0.4 µM; % toxicity at that dose (number in parenthesis), PBMC [10]: (20%); CC50 [10]: > 81 µM; IC50 [22]: 65.1 ± 3.5 µM
